Assay: Inhibition of IL-5 in mouse Y16 cells assessed as reduction in cell proliferation after 48 hrs by WST-1 assay

Row | SMILES | IC50
1 | O=C1c2c(cccc2OCCc2ccccc2)CC1Cc1ccc(O)cc1 (stereo unspecified) | 26 µM
2 | COCOc1ccc(/C=C2\Cc3cccc(OCC4CCCCC4)c3C2=O)cc1 | > 30 µM
3 | O=C1c2c(cccc2OCCc2ccccc2)CC1Cc1ccccc1O (stereo unspecified) | > 30 µM
4 | O=C1/C(=C/c2ccc(O)cc2)Cc2cccc(OCc3ccc([N+](=O)[O-])cc3)c21 | > 30 µM
5 | O=C1/C(=C/c2ccc(O)cc2)Cc2cccc(OCC3CCCCC3)c21 | > 30 µM
6 | O=C1c2c(cccc2OCCC2CCCCC2)CC1Cc1ccc(O)cc1 (stereo unspecified) | 18 µM
7 | COc1ccc(/C=C2\Cc3cccc(OCc4ccc(OC)cc4)c3C2=O)cc1 | > 30 µM
8 | O=C1/C(=C/c2ccc(O)cc2)Cc2cccc(O)c21 | > 30 µM
9 | COCOc1ccc(CC2Cc3cccc(OCC4CCCCC4)c3C2=O)cc1 (stereo unspecified) | 17 µM
10 | O=C1c2c(cccc2OCC2CCCCC2)CC1Cc1ccc(O)cc1 (stereo unspecified) | 4 µM
11 | O=C1c2c(cccc2OCC2CCCCC2)CC1Cc1ccccc1O (stereo unspecified) | > 30 µM
12 | O=C1/C(=C/c2ccccc2)Cc2cccc(O)c21 | > 30 µM
13 | COc1ccc(COc2cccc3c2C(=O)/C(=C/c2ccc(C)cc2)C3)cc1 | > 30 µM
14 | O=C1c2c(O)cccc2CC1Cc1ccc(O)cc1 (stereo unspecified) | > 30 µM
15 | COc1ccc(COc2cccc3c2C(=O)/C(=C/c2ccccc2)C3)cc1 | > 30 µM

Next, values leading:

Row | IC50 | SMILES
16 | 20.5 µM | O=C1c2c(cccc2OCC2CCCCC2)CC1Cc1ccc(Cl)cc1 (stereo unspecified)
17 | > 30 µM | COc1ccc(COc2cccc3c2C(=O)/C(=C/c2ccc(O)cc2)C3)cc1
18 | > 30 µM | COc1ccc(CC2Cc3cccc(OCC4CCCCC4)c3C2=O)cc1 (stereo unspecified)
19 | 24.5 µM | Cc1ccc(CC2Cc3cccc(OCC4CCCCC4)c3C2=O)cc1 (stereo unspecified)
20 | > 30 µM | COc1ccc(/C=C2\Cc3cccc(OCC4CCCCC4)c3C2=O)cc1
21 | 5 µM | O=c1c(Cc2ccc(O)cc2)coc2cccc(OCC3CCCCC3)c12
22 | 6 µM | O=C1c2c(cccc2OCC2CCCCC2)CC1Cc1cccc(O)c1 (stereo unspecified)
23 | > 30 µM | COc1ccc(/C=C2\Cc3cccc(O)c3C2=O)cc1
24 | 28 µM | O=C1c2c(cccc2OCCc2ccccc2)CC1Cc1cccc(O)c1 (stereo unspecified)
25 | > 30 µM | COc1ccc(COc2cccc3c2C(=O)/C(=C/c2ccc(Cl)cc2)C3)cc1
26 | 21 µM | O=C1c2c(cccc2OCc2ccccc2)CC1Cc1ccc(O)cc1 (stereo unspecified)
